Test results taken from patent EP4043444A1, “SUBSTITUTED ISOXAZOLINE DERIVATIVES” (priority 2021, dated 2022).
Read-outs that look alike come from different tables or passages of the source.

Assays:
Type in all cases: in vivo
[1] = tested on: Yellow Fever Mosquito (Aedes aegypti); assay: whole plant or invertebrate; details: 48 h, 2 days, in comparison with untreated controls, read-out: mortality (Larval mortality)
Description: For evaluating control of Yellow Fever Mosquito the test unit consisted of 96-well-microtiter plates containing 200µl of tap water per well and 5-15 freshly hatched A. aegypti larvae. The active compounds were formulated using a solution containing 75% (v/v) water and 25% (v/v) DMSO. Different concentrations of formulated compounds or mixtures were sprayed onto the insect diet at 2.5µl, using a custom-built micro atomizer, at two replications.
After application, microtiter plates were incubated at 28 + 1°C, 80 + 5 % RH for 2 days. Larval mortality was then visually assessed.

[2] = tested on: Tobacco Budworm (Heliothis virescens); assay: Tobacco Budworm control, 96-well microtiter plates with insect diet and eggs; details: for mortality at 2500 ppm: Heliothis virescens, 120 h, read-out: mortality (Egg and larval mortality)
Description: For evaluating control of Tobacco Budworm, the test unit consisted of 96-well-microtiter plates containing an insect diet and 15-25 H. virescens eggs. The compounds were formulated using a solution containing 75% v/v water and 25% v/v DMSO. Different concentrations of formulated compounds were sprayed onto the insect diet at 10µl, using a custom-built micro atomizer, at two replications. After application, microtiter plates were incubated at about 28 + 1°C and about 80 + 5 % relative humidity for 5 days. Egg and larval mortality was then visually assessed.

[3] = tested on: Green Peach Aphid (Myzus persicae) (mixed life stages); assay: Green Peach Aphid control through systemic means, artificial diet under artificial membrane; details: for mortality at 2500 ppm: Myzus persicae, 72 h, read-out: mortality (Aphid mortality)
Excerpt: For evaluating control of Green Peach Aphid through systemic means the test unit consisted of 96-well-microtiter plates containing liquid artificial diet under an artificial membrane. The compounds were formulated using a solution containing 75% v/v water and 25% v/v DMSO. Different concentrations of formulated compounds were pipetted into the aphid diet, using a custom-built pipette, at two replications. After application, 5 - 8 adult aphids were placed on the artificial membrane inside the microtiter plate wells. The aphids were then allowed to suck on the treated aphid diet and incubated at about 23 + 1°C and about 50 + 5 % relative humidity for 3 days. Aphid mortality and fecundity was then visually assessed.

[4] = tested on: Boll weevil (Anthonomus grandis); assay: Boll weevil control, 96-well microtiter plates with insect diet and eggs; details: for mortality at 2500 ppm: Anthonomus grandis, 120 h, read-out: mortality (Egg and larval mortality)
Description: For evaluating control of boll weevil, the test unit consisted of 96-well-microtiter plates containing an insect diet and 5-10 A. grandis eggs.
The compounds were formulated using a solution containing 75% v/v water and 25% v/v DMSO. Different concentrations of formulated compounds were sprayed onto the insect diet at 5µl, using a custom-built micro atomizer, at two replications.
After application, microtiter plates were incubated at about 25 + 1°C and about 75 + 5 % relative humidity for 5 days. Egg and larval mortality were then visually assessed.

[5] = 2500ppm, sprayed onto insect diet, 5 days, in comparison with untreated controls

Molecule	mortality at 2500 ppm [1] [%]	mortality at 2500 ppm [2, 5] [%]	mortality at 2500 ppm [3] [%]	mortality at 2500 ppm [4] [%]	mortality at 2500 ppm [2] [%]	mortality (Aphid mortality) ([3]; 2500 ppm, pipetted into aphid diet, 3 days, in comparison with untreated controls)	mortality (Egg and larval mortality) [2, 5]	mortality (Egg and larval mortality) [4, 5]
N#Cc1c(NC2=NOC(c3cc(Cl)cc(Cl)c3)(C(F)(F)F)C2)cccc1C(=O)NC1CC1 (stereo not shown) [I-173]	≥ 75	≥ 75						
CC(=O)Nc1c(F)ccc(NC(=O)c2cc(NC3=NOC(c4cc(Cl)cc(Cl)c4)(C(F)(F)F)C3)ccc2Cl)c1F (stereo not shown) [I-6]	≥ 75	≥ 75	≥ 75	≥ 75				
N#CC1(NC(=O)c2cc(NC3=NOC(c4cc(Cl)cc(Cl)c4)(C(F)(F)F)C3)ccc2C(F)(F)F)CC1 (stereo not shown) [I-149]	≥ 75	≥ 75		≥ 75				
O=C(CC1CC1)Nc1c(F)ccc(NC(=O)c2cc(NC3=NOC(c4cc(Cl)cc(Cl)c4)(C(F)(F)F)C3)ccc2Cl)c1F (stereo not shown) [I-10]	≥ 75	≥ 75		≥ 75				
O=C(Nc1ccc(F)cc1F)c1cc(NC2=NOC(c3cc(Cl)cc(Cl)c3)(C(F)(F)F)C2)ccc1OC(F)F (stereo not shown) [I-157]	≥ 75	≥ 75	≥ 75	≥ 75				
O=C(N[C@@H]1CON(CC(F)(F)F)C1=O)c1cc(NC2=NOC(c3cc(Cl)c(F)c(Cl)c3)(C(F)(F)F)C2)ccc1Cl (stereo partly drawn) [I-119, 2-chloro-5-[[5-(3,5-dichloro-4-fluoro-phenyl)-5-(trifluoromethyl)-4H-isoxazol-3-yl]amino]-N-[(4R)-3-oxo-2-(2,2,2-trifluoroethyl)isoxazolidin-4-yl]benzamide]	≥ 75		≥ 75	≥ 75	≥ 75			
O=C(Nc1ccc(F)cc1F)c1cccc(NC2=NOC(c3cc(Cl)cc(Cl)c3)(C(F)(F)F)C2)c1F (stereo not shown) [I-13, 3-[[5-(3,5-dichlorophenyl)-5-(trifluoromethyl)-4H-isoxazol-3-yl]amino]-N-(2,4-difluorophenyl)-2-fluoro-benzamide]	≥ 75	≥ 75	≥ 75	≥ 75				
CC(C)(C#N)NC(=O)c1cc(NC2=NOC(c3cc(Cl)c(F)c(Cl)c3)(C(F)(F)F)C2)ccc1Cl (stereo not shown) [I-75, 2-chloro-N-(1-cyano-1-methyl-ethyl)-5-[[5-(3,5-dichloro-4-fluoro-phenyl)-5-(trifluoromethyl)-4H-isoxazol-3-yl]amino]benzamide]		≥ 75		≥ 75				
O=C(NCC(F)(F)F)c1cc(NC2=NOC(c3cc(Cl)cc(Cl)c3)(C(F)(F)F)C2)ccc1OC(F)F (stereo not shown) [I-178]	≥ 75	≥ 75	≥ 75	≥ 75				
Cc1ccc(NC2=NOC(c3cc(Cl)cc(Cl)c3)(C(F)(F)F)C2)cc1C(=O)NCC(F)(F)F (stereo not shown) [I-176]	≥ 75	≥ 75		≥ 75				
CCN1OC[C@@H](NC(=O)c2cc(NC3=NOC(c4cc(Cl)cc(Cl)c4)(C(F)(F)F)C3)ccc2C)C1=O (stereo partly shown) [I-163]	≥ 75	≥ 75	≥ 75	≥ 75				
O=C(NCC(F)(F)F)c1cc(NC2=NOC(c3cc(Cl)cc(Cl)c3)(C(F)(F)F)C2)ccc1OC(F)(F)F (stereo not shown) [I-179]	≥ 75	≥ 75	≥ 75	≥ 75				
O=C(Nc1ccc(F)c(NC(=O)C(F)(F)F)c1F)c1cc(NC2=NOC(c3cc(Cl)cc(Cl)c3)(C(F)(F)F)C2)ccc1Cl (stereo not shown) [I-8]	≥ 75	≥ 75	≥ 75	≥ 75				
CCN1OC[C@@H](NC(=O)c2cc(NC3=NOC(c4cc(Cl)cc(Cl)c4)(C(F)(F)F)C3)ccc2C(F)(F)F)C1=O (stereo partly shown) [I-166]	≥ 75	≥ 75	≥ 75	≥ 75				
CCN1OC[C@@H](NC(=O)c2cc(NC3=NOC(c4cc(Cl)cc(Cl)c4)(C(F)(F)F)C3)ccc2F)C1=O (stereo partly shown) [I-162]	≥ 75	≥ 75	≥ 75	≥ 75				
N#CC1(NC(=O)c2c(F)ccc(NC3=NOC(c4cc(Cl)cc(Cl)c4)(C(F)(F)F)C3)c2F)CC1 (stereo not shown) [I-11, N-(1-cyanocyclopropyl)-3-[[5-(3,5-dichlorophenyl)-5-(trifluoromethyl)-4H-isoxazol-3-yl]amino]-2,6-difluoro-benzamide]	≥ 75	≥ 75						
N#CC1(NC(=O)c2cc(NC3=NOC(c4cc(Cl)cc(Cl)c4)(C(F)(F)F)C3)ccc2OC(F)F)CC1 (stereo not shown) [I-148]	≥ 75	≥ 75		≥ 75				
O=C(NC1CN(S(=O)(=O)C(F)F)C1)c1cc(NC2=NOC(c3cc(Cl)c(F)c(Cl)c3)(C(F)(F)F)C2)ccc1Cl (stereo not shown) [I-98, 2-chloro-5-[[5-(3,5-dichloro-4-fluoro-phenyl)-5-(trifluoromethyl)-4H-isoxazol-3-yl]amino]-N-[1-(difluoromethylsulfonyl)azetidin-3-yl]benzamide]	≥ 75		≥ 75	≥ 75	≥ 75			
2-chloro-5-[[5-(3,5-dichloro-4-fluoro-phenyl)-5-(trifluoromethyl)-4H-isoxazol-3-yl]amino]-N-[1-(trifluoromethylsulfonyl)azetidin-3-yl]benzamide [I-99]						at least 75%	at least 75%	at least 75%
N#CC1(NC(=O)c2cc(N(CC3CC3)C3=NOC(c4cc(Cl)cc(Cl)c4)(C(F)(F)F)C3)ccc2Cl)CC1 (stereo not shown) [I-25, 2-chloro-N-(1-cyanocyclopropyl)-5-[cyclopropylmethyl-[5-(3,5-dichlorophenyl)-5-(trifluoromethyl)-4H-isoxazol-3-yl]amino]benzamide]	≥ 75	≥ 75		≥ 75				
O=C(Nc1ccc(F)cc1F)c1cc(NC2=NOC(c3cc(Cl)cc(Cl)c3)(C(F)(F)F)C2)ccc1OC(F)(F)F (stereo not shown) [I-159]	≥ 75	≥ 75		≥ 75				
O=C(Nc1ccc(F)cc1F)c1cc(NC2=NOC(c3cc(Cl)cc(Cl)c3)(C(F)(F)F)C2)ccc1F (stereo not shown) [I-154]	≥ 75	≥ 75	≥ 75	≥ 75				
O=C(Nc1ccc(F)c(NC(=O)C(F)(F)Cl)c1F)c1cc(NC2=NOC(c3cc(Cl)cc(Cl)c3)(C(F)(F)F)C2)ccc1Cl (stereo not shown) [I-7]	≥ 75	≥ 75	≥ 75	≥ 75				
COc1ccc(NC2=NOC(c3cc(Cl)cc(Cl)c3)(C(F)(F)F)C2)cc1C(=O)NC1(C#N)CC1 (stereo not shown) [I-147]	≥ 75			≥ 75				
O=C(NCc1ccccn1)c1ccc(NC2=NOC(c3cc(Cl)cc(Cl)c3)(C(F)(F)F)C2)cc1Cl (stereo not shown) [I-70]	≥ 75	≥ 75		≥ 75				
CCOC(=O)N(C1=NOC(c2cc(Cl)cc(Cl)c2)(C(F)(F)F)C1)c1ccc(Cl)c(C(=O)NC2(C#N)CC2)c1 (stereo not shown) [I-28, ethyl N-[4-chloro-3-[(1-cyanocyclopropyl)carbamoyl]phenyl]-N-[5-(3,5-dichlorophenyl)-5-(trifluoromethyl)-4H-isoxazol-3-yl]carbamate]	≥ 75	≥ 75		≥ 75				
CCOC(=O)N(C1=NOC(c2cc(Cl)cc(Cl)c2)(C(F)(F)F)C1)c1ccc(Cl)c(C(=O)N(C(=O)OCC)C2(C#N)CC2)c1 (stereo not shown) [I-142, ethyl N-[4-chloro-3-[(1-cyanocyclopropyl)-ethoxycarbonyl-carbamoyl]-phenyl]-N-[5-(3,5-dichlorophenyl)-5-(trifluoromethyl)-4H-isoxazol-3-yl]carbamate]	≥ 75	≥ 75		≥ 75				
COc1ccc(NC2=NOC(c3cc(Cl)cc(Cl)c3)(C(F)(F)F)C2)cc1C(=O)NC1CC1 (stereo not shown) [I-170]	≥ 75	≥ 75		≥ 75				
CCN1OC[C@@H](NC(=O)c2ccc(NC3=NOC(c4cc(Cl)cc(Cl)c4)(C(F)(F)F)C3)cc2Cl)C1=O (stereo partly shown) [I-71]	≥ 75							
